Data published in publication PMC10224427, “A Novel Flow Cytometry-Based Assay for the Identification of HCN4 CNBD Ligands” (Pharmaceuticals, 2023).
Where “and” joins values, the source holds several entries; their conditions need not be identical. Identical values can stand only once. Entries after “also recorded” stand apart in the source; their conditions may differ. Like-named read-outs stand apart in the source and are kept apart here.

Legend:
[1] = molecular target: T1, HCN4 C-Linker-CNBD (Homo sapiens, UniProt Q9Y3Q4); test: Competitive binding assay, displacement of 8-Fluo-cAMP, flow cytometry
T1 construct: the passenger domain human HCN4 C-Linker-CNBD; CtxB signal peptide (N, cleaved yes); His-Tag (N); made in house; host or cells: E. coli BL21 (OmpT-deficient)
T1 sequence (Q9Y3Q4 521-723 limits assumed): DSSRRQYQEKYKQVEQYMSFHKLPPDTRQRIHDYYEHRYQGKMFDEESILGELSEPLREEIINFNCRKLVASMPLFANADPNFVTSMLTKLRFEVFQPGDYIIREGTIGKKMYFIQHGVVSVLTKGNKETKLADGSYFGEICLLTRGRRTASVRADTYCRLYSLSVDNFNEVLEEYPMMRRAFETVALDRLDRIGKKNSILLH

[2] = molecular target: T1, HCN4 C-Linker-CNBD; test: Flow cytometry-based ligand-binding assay, 8-Fluo-cAMP on E. coli surface-displayed protein
[3] = molecular target: maltose-binding protein (MBP) (Escherichia coli, UniProt P0AEX9); conditions: up to 4 µM 8-Fluo-cAMP
[4] = molecular target: purified HCN4 MBP-C-Linker-CNBD fusion protein; conditions: FP, cited from earlier work
[5] = molecular target: purified HCN4 C-Linker-CNBD; conditions: cited from earlier work
[6] = molecular target: HCN4 MBP-C-Linker-CNBD fusion protein; design: method as in PMID 24605759; conditions: ITC; cited from earlier work
[7] = molecular target: purified HCN4 C-Linker-CNBD; conditions: ITC; cited from earlier work
[8] = molecular target: purified HCN4 C-Linker-CNBD; conditions: SPR; cited from earlier work
[9] = 50 nM 8-Fluo-cAMP, 100 µM competitor
[10] = ref 47, read-out: binding affinity (Kd)

**Q.** With `NCC1(CC(=O)O)CCCCC1` [gabapentin, Gabapentin] as the compound, how does the “effect on 8-Fluo-cAMP binding to the CNBD (mFI)” value (from here on “effect on 8-Fluo-cAMP binding”) [1, 9] read?
**A.** no influence; also recorded: no impact

**Q.** Which “effect on 8-Fluo-cAMP binding” value [1, 9] does the source give for `COc1cc2c(cc1OC)CC(=O)N(CCCN(C)C[C@H]1Cc3cc(OC)c(OC)cc31)CC2` [ivabradine, Ivabradine] here?
**A.** no impact on ligand binding; also recorded: no influence

**Q.** Which results are given for `Nc1ncnc2c1nc(SCCNC(=S)Nc1ccc(-c3c4ccc(=O)cc-4oc4cc(O)ccc34)c(C(=O)O)c1)n2[C@@H]1O[C@@H]2COP(=O)(O)O[C@H]2[C@H]1O` [8-Fluo-cAMP, 8-(2-[Fluoresceinyl]aminoethylthio)adenosine-3′,5′-cyclic monophosphate]?
**A.** concentration at which saturation of binding is attained ([2]; mFI of cells displaying HCN4 C-Linker-CNBD): around 500 nM; Kd ([2]; surface-displayed HCN4 C-Linker-CNBD on E. coli, 1 nM-4 µM ligand, 30 min, 30 °C, read-out: dissociation constant (Kd)): 173 ± 46 nM; unspecific binding to surface-displayed MBP (mFI) [3]: only a marginal increase in mFI; also recorded: no unspecific binding; Kd ([4]; ref 35, read-out: binding affinity (Kd)): 189 nM; Kd [4, 10]: 111 nM; Kd ([5]; ref 9, read-out: binding affinity (Kd)): 280 nM; Kd [5, 10]: 167 nM

**Q.** Which IC50 ([1]; 50 nM 8-Fluo-cAMP, read-out: IC50 for 8-Fluo-cAMP binding) does the source give for `Nc1ncnc2c1ccn2[C@@H]1O[C@@H]2COP(=O)(O)O[C@H]2[C@H]1O` [7-CH-cAMP, 7-Deazaadenosine-3,5′-cyclic monophosphate] here?
**A.** 230 ± 41 nM

**Q.** What about the Ki ([1]; 50 nM 8-Fluo-cAMP, read-out: inhibitory constant (Ki), calculated) of the same compound?
**A.** 159 ± 29 nM

**Q.** What about the Kd [6] of the same compound?
**A.** 30 nM

**Q.** With `Nc1ncnc2c1ncn2C1OC2COP(=O)(O)OC2C1O` (stereo not drawn) [cAMP, Adenosine-3′,5′-cyclic monophosphate] as the compound, how does the “effect on 8-Fluo-cAMP binding” value [1] read?
**A.** decreased mFI

**Q.** What about the IC50 ([1]; IC50 for 8-Fluo-cAMP binding) of the same compound?
**A.** 13000 nM and 16000 nM and 23000 nM and 27000 nM

**Q.** What about the Ki ([1]; Ki determined graphically) of the same compound?
**A.** 11700 nM

**Q.** And the Ki ([1]; calculated Ki)?
**A.** 8500 ± 2000 nM

**Q.** What about the Kd [7] of the same compound?
**A.** 800 nM

**Q.** What about the Kd [8] of the same compound?
**A.** 1500 nM
